We go through 18 compounds from ChEMBL document CHEMBL1143897, “Aryl-indolyl maleimides as inhibitors of CaMKIIdelta. Part 2: SAR of the amine tether” (Bioorg Med Chem Lett, 2008).

Sequence of Calcium/calmodulin-dependent protein kinase type II subunit delta (Q13557 whole entry): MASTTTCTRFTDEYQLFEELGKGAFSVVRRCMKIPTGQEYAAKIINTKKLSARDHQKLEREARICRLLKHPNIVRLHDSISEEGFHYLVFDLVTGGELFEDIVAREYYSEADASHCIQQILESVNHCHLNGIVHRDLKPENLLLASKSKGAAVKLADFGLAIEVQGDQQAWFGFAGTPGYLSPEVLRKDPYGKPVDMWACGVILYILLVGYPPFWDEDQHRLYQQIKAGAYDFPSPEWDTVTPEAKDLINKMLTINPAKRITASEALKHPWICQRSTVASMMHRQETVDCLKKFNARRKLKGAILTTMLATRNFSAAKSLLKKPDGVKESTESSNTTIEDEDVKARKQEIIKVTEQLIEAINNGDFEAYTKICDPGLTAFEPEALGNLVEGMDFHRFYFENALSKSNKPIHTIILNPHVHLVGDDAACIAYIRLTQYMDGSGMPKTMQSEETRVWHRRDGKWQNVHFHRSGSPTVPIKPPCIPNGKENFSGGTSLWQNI

The test has as its target Calcium/calmodulin-dependent protein kinase type II subunit delta (Homo sapiens, UniProt Q13557). In words: Inhibition of CaMK2delta.
As for `CC(C)(C)OC(=O)NCCCn1cc(C2=C(c3c[nH]c4ccccc34)C(=O)NC2=O)c2ccccc21`, the IC50 was found to be 3810 nM.

On to `NCCCn1cc(C2=C(c3cccc(Br)c3)C(=O)NC2=O)c2ccccc21`, for which the IC50 came out at 180 nM.

Regarding `O=C1NC(=O)C(c2c[nH]c3ccccc23)=C1c1cccc(Br)c1`, the IC50 worked out at 3530 nM.

With `NCCCn1cc(C2=C(c3ccccc3)C(=O)NC2=O)c2ccccc21`, the half-inhibitory concentration (IC50) is 1350 nM.

Turning to `Cn1cc(C2=C(c3c[nH]c4ccc(Br)cc34)C(=O)NC2=O)c2ccccc21`, the IC50 came to 870 nM.

On to `O=C1NC(=O)C(c2cn(CCCN3CCNCC3)c3ccccc23)=C1c1c[nH]c2ccccc12`, for which the half-maximal inhibitory concentration (IC50) was determined as 2020 nM.

Consider `CC(C)(C)OC(=O)NCCCn1cc(C2=C(c3c[nH]c4ccc(Br)cc34)C(=O)NC2=O)c2ccccc21`, for which the IC50 is 7540 nM.

In the case of `NCCCn1cc(C2=C(c3c[nH]c4ccc(Br)cc34)C(=O)NC2=O)c2ccccc21`, the half-inhibitory concentration (IC50) stood at 34 nM.

As for `Cn1cc(C2=C(c3cn(C4CCCNC4)c4ccccc34)C(=O)NC2=O)c2ccccc21` (stereo not drawn), the IC50 was found to be 300 nM.

Consider `CC(C)(C)OC(=O)NCCCn1cc(C2=C(c3ccccc3)C(=O)NC2=O)c2ccccc21`, for which the IC50 was more than 20000 nM.

On to `O=C1NC(=O)C(c2c[nH]c3ccccc23)=C1c1c[nH]c2ccccc12` [RO-316233], for which the IC50 amounted to 1190 nM.

Regarding `CN1CCCC1CCn1cc(C2=C(c3c[nH]c4ccccc34)C(=O)NC2=O)c2ccccc21` (stereo not drawn), the IC50 was 1890 nM.

`Cn1cc(C2=C(c3cn(C4CCN(Cc5ccccc5)CC4)c4ccccc34)C(=O)NC2=O)c2ccccc21`: the IC50 was 1870 nM.

On to `O=C1NC(=O)C(c2c[nH]c3ccccc23)=C1c1ccccc1`, for which the IC50 is more than 20000 nM.

Regarding `Cn1cc(C2=C(c3ccccc3)C(=O)NC2=O)c2ccccc21`, the IC50 was more than 20000 nM.

As to `NCC(O)Cn1cc(C2=C(c3ccccc3)C(=O)NC2=O)c2ccccc21` (stereo not drawn), the IC50 was 450 nM.

As for `Cn1cc(C2=C(c3cn(CCCN)c4ccccc34)C(=O)NC2=O)c2ccccc21`, the IC50 was 310 nM.

`O=C1NC(=O)C(c2cn(CCC3CCCCN3)c3ccccc23)=C1c1c[nH]c2ccccc12` (stereo not drawn): the IC50 came to 1450 nM.
